Laboratory results: patent US4602035A, “Antidepressant (3-aryl-2,3-dihydrobenzofuran-3-yl)alkylamines” (Hoechst-Roussel Pharmaceuticals Inc., priority 1983, dated 1986)
Structures can show the parent of a compound that is named as a salt. Where two headings read alike, the source gives them in different places.

Key:
[1] = tested on: Tetrabenazine induced ptosis in mice; test: Prevention of tetrabenazine (TBZ) induced ptosis in mice (antidepressant activity); format: in vivo; conditions: Mus musculus; for inhibition in vivo at 20 mg/kg: 20 mg/kg i.p., read-out: TBZ Percent ptosis inhit. @ 20 mg/kg i.p.
Procedure: The method used is as follows.
Male mice weighing 20 to 30 grams are used in test groups of five subjects. All compounds are dissolved, or suspended with one drop of a non-ionic surfactant in distilled water and administered in volumes of 10 ml/kg of body weight. Tetrabenazine (TBZ) solution is made from methanesulfonate salt and the concentration is adjusted to enable the administration of 40 mg/kg of base by intraperitoneal injection (i.p.).
If the test compound is administered intraperitoneally, TBZ is injected 30 minutes after administration. If the test compound is administered orally (p.o.), TBZ is injected 60 minutes after the administration. A control group receives solvent and TBZ by the same route and at the same intervals as the drug groups.
The total score for each group of five will therefore be from 0 to 20 and these scores are used as indications of drug activity.
The vehicle-control group score is used as a determinate of the validity of each test.
A linear-regression analysis is used to estimate ED50 values.

[2] = tested on: 2-phenyl-1,4-benzoquinone-induced writhing in mice; test: 2-phenyl-1,4-benzoquinone-induced writhing (PQW) test in mice (analgesic activity); format: in vivo; conditions: for inhibition in vivo at 10 mg/kg / ED50: Mus musculus, sc; for inhibition in vivo at 10 mg/kg: 10 mg/kg s.c., read-out: PQW Percent writhing inhib. @ 10 mg/kg s.c.; for PQW Percent writhing inhib.: s.c.
From the text: Compounds I of the present invention are also useful as analgesic agents due to their ability to alleviate pain in mammals. […] Exptl. Biol. Med., 95, 729 (1957)].

[3] = footnote a: determined by oral administration, mice, TBZ 40 mg/kg i.p., read-out: TBZ ED50 i.p.

Row | Structure (SMILES) | inhibition in vivo at 10 mg/kg [2] [%] | inhibition in vivo at 20 mg/kg ([1]; ip, mice) [%] | further results
1 | CNCCC1(c2ccccc2)COc2ccccc21.Cl (stereo not shown) [2-(3-Phenyl-2,3-dihydrobenzofuran-3-yl)-N-methylethylamine hydrochloride] | 53 | – | ED50 [1, 3]: 4.99 mg/kg
2 | CN(CCC1(c2ccccc2)COc2ccccc21)CC1CC1.O=C(O)/C=C/C(=O)O (stereo not shown) [2-(3-Phenyl-2,3-dihydrobenzofuran-3-yl)-N-cyclopropylmethyl-N-methylethylamine fumarate] | – | 22 | ED50 [2]: 6.27 mg/kg
3 | Cc1ccc(C2(CCN(C)C)COc3ccccc32)cc1 (stereo not shown) [3-[3-(4-Tolyl)-2,3-dihydrobenzofuran-3-yl]-N,N-dimethylethylamine fumarate] | 61 | 20 | –
4 | CN(CCCC1(c2ccccc2)COc2ccccc21)CC1CC1 (stereo not shown) [3-(3-Phenyl-2,3-dihydrobenzofuran-3-yl)-N-cyclopropylmethyl-N-methylpropylamine oxalate] | 48 | 10 | –
5 | CN(CCCC1(c2ccccc2)COc2ccccc21)C(=O)OCC(Cl)(Cl)Cl (stereo not shown) [3-(3-Phenyl-2,3-dihydrobenzofuran-3-yl)-N-(2,2,2-trichloroethoxycarbonyl)-N-methylpropylamine] | 32 | – | –
6 | CN(C#N)CCC1(c2ccccc2)COc2ccccc21 (stereo not shown) [2-(3-Phenyl-2,3-dihydrobenzofuran-3-yl)-N-cyano-N-methylethylamine] | 59 | 20 | –
7 | CN(CCCC1(c2ccccc2)COc2ccccc21)CCc1ccccc1 (stereo not shown) [3-(3-Phenyl-2,3-dihydrobenzofuran-3-yl)-N-methyl-N-phenethylpropylamine oxalate] | 46 | 0 | –
8 | CN(C)CCC1(c2ccccc2)COc2ccccc21.O=C(O)C(=O)O (stereo not shown) [2-(3-Phenyl-2,3-dihydrobenzofuran-3-yl)-N,N-dimethylethylamine oxalate] | – | – | ED50 [1, 3]: 3.03 mg/kg; PQW Percent writhing inhib. ([2]; footnote b: at 20 mg/kg): 49%
9 | CNCCCC1(c2ccccc2)COc2ccccc21.Cl (stereo not shown) [3-(3-Phenyl-2,3-dihydrobenzofuran-3-yl)-N-methylpropylamine hydrochloride] | 54 | – | ED50 ([1]; ip, mice, TBZ 40 mg/kg i.p., read-out: TBZ ED50 i.p.): 13.7 mg/kg
10 | CN(C)CCC1(c2ccccc2F)COc2ccccc21 (stereo not shown) [3-[3-(2-Fluorophenyl)-2,3-dihydrobenzofuran-3-yl]-N,N--dimethylethylamine fumarate] | 35 | 60 | –
11 | CN(CCC#N)CCC1(c2ccccc2)COc2ccccc21 (stereo not shown) [2-(3-Phenyl-2,3-dihydrobenzofuran-3-yl)-N-(2-cyanoethyl)-N-methylethylamineoxalate] | – | 21 | PQW Percent writhing inhib. ([2]; footnote b: at 20 mg/kg): 33%
12 | CN(CCC1(c2ccccc2)COc2ccccc21)C(=O)OCC(Cl)(Cl)Cl (stereo not shown) [2-(3-Phenyl-2,3-dihydrobenzofuran-3-yl)-N-(2,2,2-trichloroethoxycarbonyl)-N-methylethylamine] | – | 6 | –
13 | Cc1ccccc1C1(CCN(C)C)COc2ccccc21 (stereo not shown) [3-[3-(2-Tolyl)-2,3-dihydrobenzofuran-3-yl]-N,N-dimethylethylamine fumarate] | 34 | 10 | –
14 | CN(C)CCCC1(c2ccccc2)COc2ccccc21.O=C(O)C(=O)O (stereo not shown) [3-(3-Phenyl-2,3-dihydrobenzofuran-3-yl)-N,N-dimethylpropylamine oxalate] | – | 37 | PQW Percent writhing inhib. ([2]; footnote c: at 25 mg/kg): 59%
15 | CN(C)CCCN1c2ccccc2CCc2ccccc21 [imipramine, reference compound] | – | – | ED50 ([1]; po, read-out: antidepressant ED50): 5.5 mg/kg
16 | CN(CCc1ccccc1)CCC1(c2ccccc2)COc2ccccc21.O=C(O)/C=C/C(=O)O (stereo not shown) [2-(3-Phenyl-2,3-dihydrobenzofuran-3-yl)-N-methyl-N-phenethylethylamine fumarate] | – | 17 | ED50 [2]: 20 mg/kg
17 | CN(C)CCCC1(c2ccccc2)COc2ccc(Cl)cc21.O=C(O)C(=O)O (stereo not shown) [3-(3-Phenyl-5-chloro-2,3-dihydrobenzofuran-3-yl)-N,N-dimethylpropylamine oxalate] | – | 15 | PQW Percent writhing inhib. ([2]; footnote b: at 20 mg/kg): 38%
